According to PMC11397024, “Strategic Fluorination to Achieve a Potent, Selective, Metabolically Stable, and Orally Bioavailable Inhibitor of CSNK2” (Molecules, 2024):

Columns and labels:
Test in all cases: NanoBRET K192
Format in all cases: cell-based
MERTK = target: T1, MERTK (Homo sapiens, UniProt Q12866); details: HEK293
T1 construct: purchased Promega (NanoBRET Target Engagement K192 Kinase Selectivity System)
Summary of the method: (§1)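 HEK293 cells were transfected overnight with NanoLuc–kinase fusion vectors, then treated for 2 h at 37 °C with compound (added as 100 μM working solution) plus K10 tracer. BRET was read at 450/610 nm after substrate and extracellular inhibitor, and fractional occupancy was calculated against no-compound controls.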

CDK18 + Y = target: T2, CDK18 + Y (Homo sapiens, UniProt Q07002); details: HEK293
T2 construct: purchased Promega (NanoBRET Target Engagement K192 Kinase Selectivity System)
Summary of the method: as §1

STK38L = target: T3, STK38L (Homo sapiens, UniProt Q9Y2H1); details: HEK293
T3 construct: purchased Promega (NanoBRET Target Engagement K192 Kinase Selectivity System)
Summary of the method: as §1

MAP4K1 = target: T4, MAP4K1 (Homo sapiens, UniProt Q92918); details: HEK293
T4 construct: purchased Promega (NanoBRET Target Engagement K192 Kinase Selectivity System)
Summary of the method: as §1

MAPK6 = target: T5, MAPK6 (Homo sapiens, UniProt Q16659); details: HEK293
T5 construct: purchased Promega (NanoBRET Target Engagement K192 Kinase Selectivity System)
Summary of the method: as §1

SLK = target: T6, SLK (Homo sapiens, UniProt Q9H2G2); details: HEK293
T6 construct: purchased Promega (NanoBRET Target Engagement K192 Kinase Selectivity System)
Summary of the method: as §1

IRAK3 = target: T7, IRAK3 (Homo sapiens, UniProt Q9Y616); details: HEK293
T7 construct: purchased Promega (NanoBRET Target Engagement K192 Kinase Selectivity System)
Summary of the method: as §1

CLK1 = target: T8, CLK1 (Homo sapiens, UniProt P49759)
T8 construct: purchased Promega (NanoBRET Target Engagement K192 Kinase Selectivity System)
T8 sequence (P49759 whole entry): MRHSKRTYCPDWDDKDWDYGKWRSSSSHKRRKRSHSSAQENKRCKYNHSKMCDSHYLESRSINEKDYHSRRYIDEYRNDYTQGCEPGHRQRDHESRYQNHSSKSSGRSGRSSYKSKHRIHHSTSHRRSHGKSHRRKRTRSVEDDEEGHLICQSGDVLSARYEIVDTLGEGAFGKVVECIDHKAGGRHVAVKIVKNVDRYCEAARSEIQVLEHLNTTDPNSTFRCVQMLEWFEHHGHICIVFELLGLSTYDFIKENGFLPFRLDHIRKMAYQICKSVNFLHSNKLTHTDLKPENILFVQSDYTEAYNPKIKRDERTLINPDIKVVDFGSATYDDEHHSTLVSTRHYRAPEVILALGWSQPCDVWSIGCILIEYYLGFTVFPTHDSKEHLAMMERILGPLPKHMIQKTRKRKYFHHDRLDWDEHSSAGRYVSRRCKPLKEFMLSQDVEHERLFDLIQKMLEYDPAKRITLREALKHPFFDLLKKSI
Summary of the method: as §1

DCLK3 = target: T9, DCLK3 (Homo sapiens, UniProt Q9C098); details: HEK293
T9 construct: purchased Promega (NanoBRET Target Engagement K192 Kinase Selectivity System)
Summary of the method: as §1

MET = target: T10, MET (Homo sapiens, UniProt P08581); details: HEK293
T10 construct: purchased Promega (NanoBRET Target Engagement K192 Kinase Selectivity System)
T10 sequence (P08581 25-1390): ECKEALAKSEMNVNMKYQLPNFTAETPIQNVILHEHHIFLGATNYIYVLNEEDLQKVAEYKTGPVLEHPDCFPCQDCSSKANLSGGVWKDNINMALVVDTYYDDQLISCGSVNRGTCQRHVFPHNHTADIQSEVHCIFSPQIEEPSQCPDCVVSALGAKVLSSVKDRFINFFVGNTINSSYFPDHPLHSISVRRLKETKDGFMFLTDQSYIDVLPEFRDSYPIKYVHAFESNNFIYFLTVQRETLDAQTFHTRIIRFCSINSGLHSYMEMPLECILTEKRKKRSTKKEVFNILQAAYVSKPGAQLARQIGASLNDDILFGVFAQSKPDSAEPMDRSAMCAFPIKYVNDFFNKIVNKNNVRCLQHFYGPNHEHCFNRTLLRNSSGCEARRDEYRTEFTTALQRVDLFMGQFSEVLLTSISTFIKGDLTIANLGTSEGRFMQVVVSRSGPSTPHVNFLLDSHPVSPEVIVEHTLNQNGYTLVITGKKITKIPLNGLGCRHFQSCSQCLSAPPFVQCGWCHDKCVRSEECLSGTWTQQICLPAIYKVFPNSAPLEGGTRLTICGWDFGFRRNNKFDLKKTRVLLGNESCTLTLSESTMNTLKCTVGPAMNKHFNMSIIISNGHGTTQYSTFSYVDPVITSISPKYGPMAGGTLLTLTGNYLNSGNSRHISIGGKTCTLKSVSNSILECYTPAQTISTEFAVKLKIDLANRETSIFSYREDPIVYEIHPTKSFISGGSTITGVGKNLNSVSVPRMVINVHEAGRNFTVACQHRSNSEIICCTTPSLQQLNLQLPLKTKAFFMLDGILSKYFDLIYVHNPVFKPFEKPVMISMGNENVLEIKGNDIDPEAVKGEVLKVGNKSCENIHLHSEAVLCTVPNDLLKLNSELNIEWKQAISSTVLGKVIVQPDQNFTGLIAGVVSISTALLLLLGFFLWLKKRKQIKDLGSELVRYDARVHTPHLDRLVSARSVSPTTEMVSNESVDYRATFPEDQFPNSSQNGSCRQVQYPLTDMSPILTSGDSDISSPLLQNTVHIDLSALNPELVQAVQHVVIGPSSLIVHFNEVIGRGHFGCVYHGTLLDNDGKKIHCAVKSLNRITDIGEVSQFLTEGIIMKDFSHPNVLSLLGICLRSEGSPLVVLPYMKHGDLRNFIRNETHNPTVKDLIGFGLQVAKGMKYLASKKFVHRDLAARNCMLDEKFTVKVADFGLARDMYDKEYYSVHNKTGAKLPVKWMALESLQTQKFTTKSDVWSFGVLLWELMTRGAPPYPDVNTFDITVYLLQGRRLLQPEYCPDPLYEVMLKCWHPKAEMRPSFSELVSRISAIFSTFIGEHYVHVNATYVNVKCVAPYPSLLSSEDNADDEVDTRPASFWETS
Summary of the method: as §1

EPHA1 = target: T11, EPHA1 (Homo sapiens, UniProt P21709); details: HEK293
T11 construct: purchased Promega (NanoBRET Target Engagement K192 Kinase Selectivity System)
Summary of the method: as §1

CDK4 + D3 = target: T12, CDK4 + D3 (Homo sapiens, UniProt P11802); details: HEK293
T12 construct: purchased Promega (NanoBRET Target Engagement K192 Kinase Selectivity System)
T12 sequence (P11802 whole entry): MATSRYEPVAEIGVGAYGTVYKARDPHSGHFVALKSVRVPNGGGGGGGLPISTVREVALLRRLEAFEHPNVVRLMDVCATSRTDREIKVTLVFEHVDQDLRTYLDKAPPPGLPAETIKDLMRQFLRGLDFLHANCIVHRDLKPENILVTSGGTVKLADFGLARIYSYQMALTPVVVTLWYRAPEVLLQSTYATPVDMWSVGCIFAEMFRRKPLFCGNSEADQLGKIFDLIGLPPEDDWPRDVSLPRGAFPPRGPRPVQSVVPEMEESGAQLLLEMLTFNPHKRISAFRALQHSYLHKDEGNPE
T12 sequence (P30281 whole entry partner): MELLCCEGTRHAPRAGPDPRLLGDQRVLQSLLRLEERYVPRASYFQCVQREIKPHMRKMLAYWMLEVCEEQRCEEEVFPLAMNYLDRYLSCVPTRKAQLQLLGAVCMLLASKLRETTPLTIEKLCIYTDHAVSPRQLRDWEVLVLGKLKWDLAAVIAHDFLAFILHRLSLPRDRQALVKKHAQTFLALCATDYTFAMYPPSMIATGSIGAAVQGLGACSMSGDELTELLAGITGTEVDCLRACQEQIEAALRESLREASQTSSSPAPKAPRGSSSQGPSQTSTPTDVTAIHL
Summary of the method: as §1

ITK = target: T13, ITK (Homo sapiens, UniProt Q08881); details: HEK293
T13 construct: purchased Promega (NanoBRET Target Engagement K192 Kinase Selectivity System)
Summary of the method: as §1

CAMK1 = target: T14, CAMK1 (Homo sapiens, UniProt Q14012); details: HEK293
T14 construct: purchased Promega (NanoBRET Target Engagement K192 Kinase Selectivity System)
Summary of the method: as §1

MYLK2 = target: T15, MYLK2 (Homo sapiens, UniProt Q9H1R3); details: HEK293
T15 construct: purchased Promega (NanoBRET Target Engagement K192 Kinase Selectivity System)
Summary of the method: as §1

MLTK = target: T16, MLTK (Homo sapiens, UniProt Q9NYL2); details: HEK293
T16 construct: purchased Promega (NanoBRET Target Engagement K192 Kinase Selectivity System)
Summary of the method: as §1

STK3 = target: T17, STK3 (Homo sapiens, UniProt Q13188); details: HEK293
T17 construct: purchased Promega (NanoBRET Target Engagement K192 Kinase Selectivity System)
Summary of the method: as §1

TXK = target: T18, TXK (Homo sapiens, UniProt P42681); details: HEK293
T18 construct: host or cells: HEK293
Summary of the method: as §1

CDK16 + Y = target: T19, CDK16 + Y (Homo sapiens, UniProt Q00536); details: HEK293
T19 construct: purchased Promega (NanoBRET Target Engagement K192 Kinase Selectivity System)
T19 sequence (Q00536 whole entry): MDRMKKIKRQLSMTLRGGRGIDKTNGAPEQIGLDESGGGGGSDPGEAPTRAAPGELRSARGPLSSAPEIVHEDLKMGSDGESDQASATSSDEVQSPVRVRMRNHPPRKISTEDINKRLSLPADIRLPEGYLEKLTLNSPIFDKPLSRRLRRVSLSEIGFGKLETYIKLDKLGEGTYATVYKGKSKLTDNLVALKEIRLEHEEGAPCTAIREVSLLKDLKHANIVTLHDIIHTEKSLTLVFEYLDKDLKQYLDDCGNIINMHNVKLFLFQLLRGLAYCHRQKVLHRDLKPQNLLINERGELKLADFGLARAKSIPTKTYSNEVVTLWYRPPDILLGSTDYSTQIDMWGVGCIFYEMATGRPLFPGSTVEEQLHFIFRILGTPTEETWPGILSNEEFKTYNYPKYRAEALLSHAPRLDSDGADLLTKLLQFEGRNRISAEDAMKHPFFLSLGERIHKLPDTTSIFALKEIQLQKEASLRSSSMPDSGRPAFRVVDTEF
T19 sequence (Q8ND76 whole entry partner): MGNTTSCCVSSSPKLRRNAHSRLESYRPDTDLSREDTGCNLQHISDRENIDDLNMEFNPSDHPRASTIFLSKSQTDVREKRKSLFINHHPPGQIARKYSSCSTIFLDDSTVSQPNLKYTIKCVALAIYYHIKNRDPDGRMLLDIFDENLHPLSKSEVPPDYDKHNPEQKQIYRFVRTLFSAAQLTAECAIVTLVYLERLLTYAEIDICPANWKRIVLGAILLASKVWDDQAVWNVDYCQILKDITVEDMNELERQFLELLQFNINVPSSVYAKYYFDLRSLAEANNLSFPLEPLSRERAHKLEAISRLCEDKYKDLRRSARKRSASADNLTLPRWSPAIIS
Summary of the method: as §1

AAK1 = target: T20, AAK1 (Homo sapiens, UniProt Q2M2I8); details: HEK293
T20 construct: purchased Promega (NanoBRET Target Engagement K192 Kinase Selectivity System)
Summary of the method: as §1

CLK4 = target: T21, CLK4 (Homo sapiens, UniProt Q9HAZ1)
T21 construct: expressed in transfected cells; host or cells: HEK293
T21 sequence (Q9HAZ1 whole entry): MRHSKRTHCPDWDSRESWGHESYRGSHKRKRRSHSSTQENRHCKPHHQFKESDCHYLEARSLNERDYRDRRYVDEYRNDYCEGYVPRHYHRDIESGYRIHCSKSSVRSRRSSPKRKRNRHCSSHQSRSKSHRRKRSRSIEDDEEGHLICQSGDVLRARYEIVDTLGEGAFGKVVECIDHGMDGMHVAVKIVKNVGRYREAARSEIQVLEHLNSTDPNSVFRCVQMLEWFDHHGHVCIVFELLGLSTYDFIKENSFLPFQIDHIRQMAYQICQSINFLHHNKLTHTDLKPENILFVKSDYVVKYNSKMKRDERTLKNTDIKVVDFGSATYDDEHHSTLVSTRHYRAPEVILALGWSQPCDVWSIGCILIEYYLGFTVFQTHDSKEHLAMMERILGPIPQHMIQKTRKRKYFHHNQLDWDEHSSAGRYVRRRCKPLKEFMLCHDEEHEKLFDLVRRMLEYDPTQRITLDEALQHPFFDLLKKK
Summary of the method: as §1

TBK1 = target: T22, TBK1 (Homo sapiens, UniProt Q9UHD2); details: HEK293
T22 construct: purchased Promega (NanoBRET Target Engagement K192 Kinase Selectivity System)
Summary of the method: as §1

ULK2 = target: T23, ULK2 (Homo sapiens, UniProt Q8IYT8); details: HEK293
T23 construct: purchased Promega (NanoBRET Target Engagement K192 Kinase Selectivity System)
T23 sequence (Q8IYT8 whole entry): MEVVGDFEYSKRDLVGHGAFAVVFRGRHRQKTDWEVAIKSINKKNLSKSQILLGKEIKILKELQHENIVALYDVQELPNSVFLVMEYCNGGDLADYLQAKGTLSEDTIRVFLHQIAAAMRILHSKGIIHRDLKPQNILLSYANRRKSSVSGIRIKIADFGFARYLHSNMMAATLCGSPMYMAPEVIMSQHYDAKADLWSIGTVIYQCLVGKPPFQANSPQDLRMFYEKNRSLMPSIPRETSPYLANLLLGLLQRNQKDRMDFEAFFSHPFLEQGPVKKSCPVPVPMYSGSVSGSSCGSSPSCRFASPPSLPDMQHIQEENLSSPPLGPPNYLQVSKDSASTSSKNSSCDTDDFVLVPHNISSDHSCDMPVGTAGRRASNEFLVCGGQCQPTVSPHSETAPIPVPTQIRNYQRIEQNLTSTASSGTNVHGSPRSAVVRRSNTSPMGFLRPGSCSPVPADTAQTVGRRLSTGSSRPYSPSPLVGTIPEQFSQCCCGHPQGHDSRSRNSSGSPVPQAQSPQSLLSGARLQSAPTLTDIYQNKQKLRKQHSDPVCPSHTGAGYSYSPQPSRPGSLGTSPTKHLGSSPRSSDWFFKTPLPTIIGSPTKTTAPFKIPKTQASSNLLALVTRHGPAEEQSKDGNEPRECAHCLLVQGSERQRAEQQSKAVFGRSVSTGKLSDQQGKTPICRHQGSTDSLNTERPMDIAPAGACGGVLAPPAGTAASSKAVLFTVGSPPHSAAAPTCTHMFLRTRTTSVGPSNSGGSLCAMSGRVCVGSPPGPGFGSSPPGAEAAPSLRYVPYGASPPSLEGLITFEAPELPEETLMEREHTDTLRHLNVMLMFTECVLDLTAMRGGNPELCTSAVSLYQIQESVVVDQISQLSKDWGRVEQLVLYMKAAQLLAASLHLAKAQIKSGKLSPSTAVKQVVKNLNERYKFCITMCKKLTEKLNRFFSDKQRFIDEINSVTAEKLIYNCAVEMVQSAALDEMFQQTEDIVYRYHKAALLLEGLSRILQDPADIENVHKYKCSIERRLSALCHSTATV
Summary of the method: as §1

CSNK1A1L = target: T24, CSNK1A1L (Homo sapiens, UniProt Q8N752); details: HEK293
T24 construct: purchased Promega (NanoBRET Target Engagement K192 Kinase Selectivity System)
Summary of the method: as §1

SRMS = target: T25, SRMS (Homo sapiens, UniProt Q9H3Y6); details: HEK293
T25 construct: purchased Promega (NanoBRET Target Engagement K192 Kinase Selectivity System)
Summary of the method: as §1

LRRK2 = target: T26, LRRK2 (Homo sapiens, UniProt Q5S007); details: HEK293
T26 construct: purchased Promega (NanoBRET Target Engagement K192 Kinase Selectivity System)
Summary of the method: as §1

STK17B = target: T27, STK17B (Homo sapiens, UniProt O94768); details: HEK293
T27 construct: purchased Promega (NanoBRET Target Engagement K192 Kinase Selectivity System)
Summary of the method: as §1

CCC(=O)Nc1cc(Nc2cc(NC3CC3)n3ncc(C#N)c3n2)c(F)cc1N1CCC[C@H](NC)C1 [Compound 2, (S)-N-(5-((3-cyano-7-(cyclopropylamino)pyrazolo[1,5-a]pyrimidin-5-yl)amino)-4-fluoro-2-(3-(methylamino)piperidin-1-yl)phenyl)propionamide]
receptor occupancy at 10 µM (MERTK): 4.2% | receptor occupancy at 10 µM (CDK18 + Y): 17.5% | receptor occupancy at 10 µM (STK38L): 4% | receptor occupancy at 10 µM (MAP4K1): 5.1% | receptor occupancy at 10 µM (MAPK6): 14.6% | receptor occupancy at 10 µM (SLK): 6.6% | receptor occupancy at 10 µM (IRAK3): 2.4% | % occupancy at 10 μM (CLK1; CLK1, HEK293): 76% | receptor occupancy at 10 µM (CLK1; HEK293, CLK1): 76.2% | receptor occupancy at 10 µM (DCLK3): 44.7% | receptor occupancy at 10 µM (MET): 12.3% | receptor occupancy at 10 µM (EPHA1): 7.7% | receptor occupancy at 10 µM (CDK4 + D3): 8.5% | receptor occupancy at 10 µM (ITK): 11.9% | receptor occupancy at 10 µM (CAMK1): 26.2% | receptor occupancy at 10 µM (MYLK2): 13.1% | receptor occupancy at 10 µM (MLTK): 1.1% | receptor occupancy at 10 µM (STK3): 5.2% | receptor occupancy at 10 µM (TXK): -3.2% | receptor occupancy at 10 µM (CDK16 + Y): 25.8% | receptor occupancy at 10 µM (AAK1): 17.8% | % occupancy at 10 μM (CLK4; CLK4, HEK293): 74% | receptor occupancy at 10 µM (CLK4; HEK293, CLK4): 73.8% | receptor occupancy at 10 µM (TBK1): 18.5% | receptor occupancy at 10 µM (ULK2): 15.5% | receptor occupancy at 10 µM (CSNK1A1L): 1.5% | receptor occupancy at 10 µM (SRMS): 7.4% | receptor occupancy at 10 µM (LRRK2): -1.5% | receptor occupancy at 10 µM (STK17B): 45.5%
